From PubChem BioAssay AID179 (DTP/NCI, 2004)
Several values for one entry are separate records, joined by “and”; a condition that tells them apart may be missing. Equal values may be shown once. Activity calls are given as the source filed them.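 How the source made its calls: active means compounds giving half or more protection of infected cells from virus-caused growth loss, again on retest; inactive means the rest.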 Where a SMILES comes first, the peptide text is derived from it. [ ]: non-standard residue; d: D form. The star is where a group is joined. Chg = N[CH](C(=O)O)C1CCCCC1; Cbz = O=C(OCc1ccccc1)*; OBn = c1ccc(CO*)cc1

System: CEM cells HIV-1 protection, formazan growth assay
Test: NCI AIDS Antiviral Assay
Details: for IC50: measured here: growth of uninfected CEM cells
Outline: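 Steps: treat uninfected and HIV-1-infected human CEM cells at five drug levels; quantify growth by soluble formazan; retest any compound reaching 50% protection; classify actives from the retest.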

| SMILES | EC50 [µM] | IC50 | outcome |
| --- | --- | --- | --- |
| COc1cc(/C=C/C(=N\NC(=S)NN)c2sc(NNC(C)=O)nc2C)ccc1O | > 12 | > 12 µM | – |
| CN1C(=O)c2ccccc2C2(O)c3ccccc3-c3ccccc3C12O (centres undefined) | > 20 | 4.47 µM | – |
| NCCCCC(=O)NC(CCCCNC(=O)OCc1ccccc1)C(=O)NCCCCC(=O)NC(CCCCNC(=O)OCc1ccccc1)C(=O)NCCCCC(=O)NC(CCCCNC(=O)OCc1ccccc1)C(=O)NCCCCC(=O)NC(CCCCNC(=O)OCc1ccccc1)C(=O)NCCCCC(=O)NC(CCCCNC(=O)OCc1ccccc1)C(=O)NCCCCC(=O)NC(CCCCNC(=O)OCc1ccccc1)C(=O)NCCCCC(=O)NC(CCCCNC(=O)OCc1ccccc1)C(=O)O (centres undefined) | > 7.08 | > 7.08 µM | – |
| O=C1C=C(Nc2ccc(Br)cc2)c2ccccc2C1=O | > 4.37 | > 4.37 µM | – |
| N#CC12C(=O)N3C(=NC(c4ccccc4)NC3c3ccccc3)C1(C#N)C(c1ccccc1)NC1=C2CCC1 (centres undefined) | > 200 | > 200 µM | – |
| c1ccc2c(c1)c1c(n2CCOCCN2CCOCC2)CCCC1 | > 200 | 112 µM | – |
| OCC1(CO)COC2(CCCCC2)N1 | > 1230 | > 1230 µM | – |
| CC1(C)OCC(/C=C\C(O)CC2(C)OCCO2)CO1 (centres undefined) | – | – | inactive |
| Cc1ccc(NC(=O)C(=O)CC(=O)c2c(C)n([O-])c3ccccc3[n+]2=O)cc1C | > 64.6 | > 64.6 µM | – |
| COc1ccccc1/C=C(\NC(=O)c1ccccc1)C(=O)NC(C)C | > 200 | > 200 µM | – |
| COc1ccc(N2C(=O)C3c4[nH]c5ccccc5c4C4c5ccccc5CC4C3C2=O)cc1 (centres undefined) | > 200 | > 200 µM | – |
| O=C(c1ccccc1)N1C2CCC1C(C(F)(F)F)=C2C(F)(F)F | – | – | inactive |
| CC(C)C(/C=C/c1ccc(Cl)cc1)=N\NC(=S)NN | > 200 | 12 µM | – |
| CCCC1OC(=O)c2ccccc2S1 (centres undefined) | > 200 | > 200 µM | – |
| N#CCCC1(CCC#N)S(=O)(=O)OCCOS1(=O)=O | > 200 | 44.7 µM | – |
| CCOC(=O)CN1CCNCCN(CC(=O)OCC)CCNCC1 | > 100 | 9.77 µM | – |
| Cc1cc2c(c(C(=O)NCC(=O)O)c1)Oc1c(cc(C)cc1C(=O)NCC(=O)O)S2 | > 200 | > 200 µM | – |
| N/C(=N\N=C\c1c[nH]c2cc(C(F)(F)F)ccc2c1=O)NO | > 200 | 89.1 µM | – |
| COc1ccc(C(CC(=O)c2ccccc2)C(=O)c2ccc3c(c2)OCO3)cc1 (centres undefined) | > 200 | > 200 µM | – |
| CC(=O)Nc1sccc1S(=O)(=O)c1ccsc1NC(C)=O | > 200 | 5.62 µM | – |
| O=S(=O)(N=[Se](=O)(c1ccccc1)c1ccccc1)c1ccccc1 | > 200 | 115 µM | – |
| CC(=O)OCC1OC(n2c(C)c(C(C)=O)c(-c3cccc4ccccc34)c(C#N)c2=S)C(OC(C)=O)C(OC(C)=O)C1OC(C)=O (centres undefined) | > 200 | 112 µM | – |

| SMILES | EC50 [µM] | IC50 | outcome |
| --- | --- | --- | --- |
| O=C1N=C2N=C(c3ccc(Cl)cc3)N(c3ccc(Cl)cc3)N2Sc2ccccc21 | > 11.2 | > 11.2 µM | – |
| O=C(COc1ccc(OCC(=O)N2C(=O)CN(c3ccc(Cl)cc3)C2=S)cc1)N1C(=O)CN(c2ccc(Cl)cc2)C1=S | > 200 | 43.7 µM | – |
| Cc1ccc(N2CC(=O)N3CCCC(c4ccccc4)N3C(=O)C2)cc1 (centres undefined) | – | – | inactive |
| Cc1ccc(S(=O)(=O)OC2=C/C(=N\c3onc(C)c3C)c3ccccc3C2=O)cc1 | > 200 | 3.09 µM | – |
| CC#CCOC(=O)c1ccccc1OC(C)=O.[C-]#[O+].[C-]#[O+].[C-]#[O+].[C-]#[O+].[C-]#[O+].[C-]#[O+].[Co].[Co] | > 200 | 7.76 µM | – |
| Cc1cccc(C)c1NC(=S)NNC(=O)NNC(=S)Nc1c(C)cccc1C | > 200 | > 200 µM | – |
| CC1=C(c2cc(C(=O)Nc3cccc(Cl)c3)nc(NC#N)n2)Sc2ccccc2N1 | – | – | inactive |
| O=c1[nH]ncc2c1nnn2C1CCC(CO)O1 (centres undefined) | > 200 | > 200 µM | – |
| O=C1CSC(c2c[nH]c3ccccc23)N1c1ccccc1[N+](=O)[O-] (centres undefined) | > 389 | > 389 µM | – |
| CCOC(=O)NC(C)(C)CN(CCO)C(=O)OCC | > 200 | > 200 µM | – |
| Cc1c2ccccc2nc(CS(=O)(=O)CCO)[n+]1[O-] | > 200 | > 200 µM | – |
| N#Cc1c2n(c(=S)n(-c3ccccc3)c1=N)CCCCCCC2 | > 200 | 10.7 µM | – |
| CC1(C)CCC(=O)c2c(O)ccc(O)c21 | – | – | inactive |
| CCOC(=O)[C@H]1Nc2ccc([N+](=O)[O-])cc2C2c3ccccc3CC21 (some centres undefined) | > 11.2 | > 11.2 µM | – |
| Cc1ccc(-n2c(CSc3ccc(Cl)cc3)nnc2SCc2nc3ccccc3[nH]2)cc1 | > 200 | 120 µM | – |
| COc1ccc(C(=O)C(CO)Oc2ccccc2OC)cc1OC (centres undefined) | > 759 | 513 µM | – |
| S=C1N(c2ccc(Cl)cc2)C2=C(N=Nc3cc(Cl)ccc3Cl)C(=Nc3ccccc3S2)N1c1ccccn1 | > 40.7 | > 40.7 µM | – |
| CC(O)CN1C(=O)c2cccc3cc([N+](=O)[O-])cc(c23)C1=O (centres undefined) | > 200 | 12 µM | – |
| NC(CCSSCCC(N)C(=O)NCC(=O)O)C(=O)NCC(=O)O (centres undefined) | > 64.6 | > 64.6 µM | – |
| CCOC(=O)/C=C(/CN1C(=O)c2ccccc2C1=O)c1ccccc1 | – | – | inactive |
| O=C1NC(=O)C(=Cc2cccc(Cl)c2)C(=O)N1 | > 145 | > 145 µM | – |
| CC(=O)NCS(=O)(=O)O | > 200 | > 200 µM | – |

| SMILES | EC50 [µM] | IC50 | outcome |
| --- | --- | --- | --- |
| COC(=O)C(NC(=O)C(CC(=O)OCc1ccccc1)NC(=O)OCc1ccccc1)C1CCCCC1 (centres undefined) (Cbz-Asp(OBn)-[Chg]-OMe; configuration not given here) | > 200 | 105 µM | – |
| Cc1ccc(S(=O)(=O)N/N=C\C2c3ccccc3-c3ccccc32)cc1 | > 200 | 2.19 µM | – |
| CC1OC(n2ncc(=O)[nH]c2=O)C=CC1=O (centres undefined) | > 1120 | 10 µM and 6.92 µM | – |
| CC1(C)OCC([C@H]2CC23SCCCS3)O1 (some centres undefined) | > 200 | > 200 µM | – |
| Cc1cn([C@@H]2C[C@@H]2CO)c(=O)[nH]c1=O | – | – | inactive |
| O=C(O)C12CCCCC1CCCC2 (centres undefined) | > 372 | > 372 µM | – |
| COc1ccc2c(c1)OCC1Cc3cc4c(cc3OC21)OCO4 (centres undefined) | – | – | inactive |
| O=C1CC(=O)N(CCc2ccccn2)C(=O)N1CCc1ccccn1 | – | – | inactive |
| NC(=O)c1ccccc1NC(=O)C(=O)C(C(=O)c1ccc(Cl)c(Cl)c1)C1OC(=O)c2ccccc21 (centres undefined) | > 339 | 21.4 µM | – |
| COC(=O)c1cc(C(=O)c2cc(C)c(OC)c(C(=O)OC)c2)cc(C)c1OC | > 200 | 66.1 µM | – |
| CCC(=O)N(c1ccccc1)C(C)CN1CCC(O)(c2ccccc2)CC1 (centres undefined) | > 200 | > 200 µM | – |
| O=C1c2ccccc2CC12Cc1ccc3c(c1C2=O)CCCC3 (centres undefined) | > 200 | > 200 µM | – |
| COc1ccc(C(=O)O)c(Cc2ccc3ccccc3c2)c1 | – | – | inactive |
| CC(=O)c1ccc(NC(=O)C(=O)C(C(=O)/C=C/c2ccccc2)C2OC(=O)c3ccccc32)cc1 (centres undefined) | > 282 | 148 µM | – |
| O=C(Sc1c(-c2ccccc2)c(=O)n(-c2ccccc2)c(=S)n1-c1ccccc1)c1ccccc1 | > 200 | 8.51 µM | – |
| COC(=O)C12CC3CC(CC(NC(=O)C(Cc4ccccc4)NC(=O)CN)(C3)C1)C2 (centres undefined) | > 200 | 110 µM | – |
| S=C1N=C(Cl)/C(=C\c2ccco2)N1 | > 200 | > 200 µM | – |
| CC(=O)NNC(=S)/N=C/C(C(=O)Nc1ccc(Cl)cc1)=C(\C)O | – | – | inactive |
| C=CC(=O)Nc1ccccc1CC(c1c[nH]c2ccccc12)c1c[nH]c2ccccc12 | > 36.3 | 25.7 µM | – |
| O=C1NC2(CCCCC2)N=C2C(Cl)CCCC12Cl (centres undefined) | > 200 | > 200 µM | – |
| CCCC(=O)Nc1ccc2c(ccn2COC)c1 | > 200 | > 200 µM | – |
| CCN(CCCl)CCCCCNc1c2ccccc2nc2ccc(OC)cc12 | – | – | inactive |

| SMILES | EC50 [µM] | IC50 | outcome |
| --- | --- | --- | --- |
| CCOC/N=C(/N)NC#N | > 631 | > 631 µM | – |
| O=C1CC2(CCN(Cc3ccccc3)CC2)C(=O)N1N1CCCCC1 | > 200 | > 200 µM | – |
| C=CCN1C(=O)C(=O)N(CC=C)C(=O)C1=O | – | – | inactive |
| COc1ccc(OC)c2c(C(=O)O)c(Cc3ccccc3)ccc12 | – | – | inactive |
| Nc1nnc2c(n1)[nH]c1ccccc12 | > 74.1 | > 74.1 µM | – |
| CC(C)COC(=O)N1N=NC2C3CC(=O)C(O3)C21 (centres undefined) | > 708 | 123 µM | – |
| O=C1NC2(O)C(=O)c3ccccc3C2(O)N1 (centres undefined) | > 1120 | > 1120 µM | – |
| COC(=O)c1ccc(CSc2ccc(Cl)cc2)cc1 | > 4.9 | 3.55 µM | – |
| COc1cc2oc(-c3ccc4c(c3)OCO4)c(OC)c(=O)c2c(OC)c1OC | 155 | > 200 µM | – |
| CCOC(=O)c1c(O)cn2c1[nH]c1cccc3cccc2c31 | > 100 | 25.7 µM | – |
| O=C(OCCO)C1CC2CC1C1(C2)OCCO1 (centres undefined) | – | – | inactive |
| CCC1(c2ccc3ccccc3c2)Oc2ccccc2-n2cccc2C1=O (centres undefined) | 1.17 | 91.2 µM | – |
| C/C(O)=C(\C=N\C(N)=S)C(=O)Nc1ccc(Cl)cc1 | > 200 | > 100 µM | – |
| Brc1c(C#CCC2CCCCC2)ccc(C#CCC2CCCCC2)c1Br | > 100 | > 100 µM | – |
| CC(/C=C/C1OC(=O)C=CC1C)=C\C(C)C/C=C/C(C)=C/C(C)C(=O)C(C)C(O)C(C)C/C(C)=C/C(=O)O (centres undefined) | > 0.02 | 0.00631 µM | – |
| CS(=O)(=O)N(CCC#N)c1ccc(/C=C2\N=C(c3ccccc3Cl)OC2=O)cc1 | > 219 | > 219 µM | – |
| [N-]=[N+]=Nc1cc(=O)[nH]nc1-c1ccccc1 | > 200 | > 200 µM | – |
| N#Cc1c(N2CCOCC2)[nH]c(=O)n(-c2ccccc2)c1=S | > 200 | > 200 µM | – |
| O=C(CC1(O)C(=O)Nc2c(Cl)cc(Cl)cc21)c1ccc2ccccc2c1 (centres undefined) | > 49 | 20.4 µM | – |
| [N-]=[N+]=Nc1ccc2c(c1)Sc1ccccc1N2CCCCN1CCN(Cc2ccc(C(=O)c3ccccc3)cc2)CC1 | > 100 | 6.03 µM | – |
| c1ccc(COC[C@H]2O[C@@H](c3ccccc3)C[C@@H](OCc3ccccc3)C2OCc2ccccc2)cc1 (some centres undefined) | > 200 | > 200 µM | – |
